Measured values published in article PMC7558399, “In Vitro Selective Growth-Inhibitory Activities of Phytochemicals, Synthetic Phytochemical Analogs, and Antibiotics against Diarrheagenic/Probiotic Bacteria and Cancer/Normal Intestinal Cells” (Pharmaceuticals, 2020).
Converted amounts (≈) assume the structure as drawn. Like-named read-outs stand apart in the source and are kept apart here.

How the values were obtained:
Type in all cases: cell-based
[1] = system: Lactobacillus reuteri (CCM 3625); experiment: Broth microdilution MIC, L. reuteri; details: Limosilactobacillus reuteri, CCM3625; Lactobacillus reuteri; growth inhibited by ≥80%; read-out: MIC
[2] = system: Enterococcus faecalis (ATCC 29212); experiment: Broth microdilution MIC, E. faecalis; details: ATCC29212, growth inhibited by ≥80%, read-out: MIC
[3] = system: intestinal cancer cells (HT29 and Caco-2); experiment: MTT cytotoxicity assay, mean for intestinal cancer cells; details: for IC50: mean of HT29 and Caco-2, >512 replaced with 1024, read-out: x¯ -CC ± SD: mean IC50 for intestinal cancer cells; for IC80: read-out: x¯ -CC ± SD: mean IC80 for intestinal cancer cells
[4] = system: Listeria monocytogenes (ATCC 7644); experiment: Broth microdilution MIC, L. monocytogenes; details: ATCC7644, growth inhibited by ≥80%, read-out: MIC
[5] = system: Bifidobacterium longum ssp. longum (DSMZ 20219); experiment: Broth microdilution MIC, B. longum ssp. longum; details: DSMZ20219; Bifidobacterium longum ssp. longum; growth inhibited by ≥80%; read-out: MIC
[6] = system: HT29 (ATCC HTB 38) intestinal cancer cells; experiment: MTT cytotoxicity assay, HT29; details: Homo sapiens, HT-29, HT29, MTT, 72 h; for IC50: read-out: IC50 ± SD; for IC80: read-out: IC80 ± SD (80% inhibitory concentration of proliferation)
[7] = system: Bifidobacterium breve (ATCC 15700); experiment: Broth microdilution MIC, B. breve; details: ATCC15700, growth inhibited by ≥80%, read-out: MIC
[8] = system: FHs 74 Int (ATCC CCL 241) intestinal normal cells; experiment: MTT cytotoxicity assay, FHs 74 Int; details: FHs74Int, 72 h, FHs 74 Int (intestinal normal cells), MTT; for IC50: read-out: IC50 ± SD; for IC80: read-out: IC80 ± SD (80% inhibitory concentration of proliferation)
[9] = system: diarrheagenic bacteria (12 strains); experiment: microbe, parasite or virus in culture; details: mean of 12 strains; >512 replaced with 1024; read-out: x¯ -DB ± SD: mean MIC for diarrheagenic bacteria
[10] = system: S. enterica ssp. enterica serovar Typhimurium (ATCC 14028); experiment: Broth microdilution MIC, Salmonella Typhimurium; details: Salmonella Typhimurium, growth inhibited by ≥80%, read-out: MIC
[11] = system: Yersinia enterocolitica (ATCC 9610); experiment: Broth microdilution MIC, Y. enterocolitica; details: ATCC9610, growth inhibited by ≥80%, read-out: MIC
[12] = system: Clostridium difficile (DSMZ 12056); experiment: microbe, parasite or virus in culture; details: Clostridioides difficile, DSMZ12056
[13] = system: Shigella flexneri (ATCC 12022); experiment: microbe, parasite or virus in culture; details: ATCC12022
[14] = system: E. coli 0175:H7 (NCTC 12900); experiment: microbe, parasite or virus in culture; details: Escherichia coli, NCTC12900
[15] = system: Bifidobacterium adolescentis (DSMZ 20087); experiment: Broth microdilution MIC, B. adolescentis; details: DSMZ20087, growth inhibited by ≥80%, read-out: MIC
[16] = system: Bacteroides fragilis (ATCC 25285); experiment: Broth microdilution MIC, B. fragilis; details: ATCC25285, growth inhibited by ≥80%, read-out: MIC
[17] = system: probiotic bacteria (9 strains); experiment: Broth microdilution MIC, probiotic bacteria as a group (mean or range over strains); details: mean of 9 strains; >512 replaced with 1024; read-out: x¯ -PB ± SD: mean MIC for probiotic bacteria
[18] = system: Bifidobacterium bifidum (ATCC 29521); experiment: Broth microdilution MIC, B. bifidum; details: ATCC29521, growth inhibited by ≥80%, read-out: MIC
[19] = system: Caco-2 (ATCC HTB 37) intestinal cancer cells; experiment: MTT cytotoxicity assay, Caco-2; details: Homo sapiens, Caco-2, MTT, 72 h; for IC50: read-out: IC50 ± SD; for IC80: read-out: IC80 ± SD (80% inhibitory concentration of proliferation)
[20] = system: Salmonella enterica ssp. enterica serovar Enteritidis (ATCC 13076); experiment: Broth microdilution MIC, Salmonella Enteritidis; details: Salmonella Enteritidis, growth inhibited by ≥80%, read-out: MIC
[21] = system: Vibrio parahaemolyticus (ATCC 17802); experiment: Broth microdilution MIC, V. parahaemolyticus; details: ATCC17802, growth inhibited by ≥80%, read-out: MIC
[22] = system: 21 strains (diarrheagenic and probiotic bacteria); experiment: organism not typed; details: any of the 21 strains
[23] = system: Escherichia coli (ATCC 25922); experiment: Broth microdilution MIC, E. coli; details: ATCC25922, growth inhibited by ≥80%, read-out: MIC
[24] = system: Bacillus cereus (ATCC 14579); experiment: Broth microdilution MIC, B. cereus; details: ATCC14579, growth inhibited by ≥80%, median/mode, read-out: MIC
[25] = system: Bifidobacterium animalis spp. lactis (DSMZ 10140); experiment: Broth microdilution MIC, B. animalis spp. lactis; details: DSMZ10140; Bifidobacterium animalis spp. lactis; growth inhibited by ≥80%; read-out: MIC
[26] = system: Lactobacillus rhamnosus (CCM 7091); experiment: Broth microdilution MIC, L. rhamnosus; details: Lacticaseibacillus rhamnosus, CCM7091; Lactobacillus rhamnosus; growth inhibited by ≥80%; read-out: MIC
[27] = system: Lactobacillus casei (DSMZ 20011); experiment: Broth microdilution MIC, L. casei; details: Lacticaseibacillus casei, DSMZ20011; Lactobacillus casei; growth inhibited by ≥80%; read-out: MIC
[28] = system: Clostridium perfringens (DSMZ 11778); experiment: microbe, parasite or virus in culture; details: DSMZ11778

## COc1ccc2cc3[n+](cc2c1OC)CCc1cc2c(cc1-3)OCO2 [BR, berberine chloride]
[1]
  MIC: > 512 µg/mL
[2]
  MIC: > 512 µg/mL
[3]
  IC50: 12.2 ± 7 µg/mL
  IC80: 60.5 ± 18.4 µg/mL
[4]
  MIC: > 512 µg/mL
[5]
  MIC: 32 µg/mL
[6]
  IC50: 5 ± 1 µg/mL
  IC80: 42.1 ± 7.3 µg/mL
[7]
  MIC: 64 µg/mL
[8]
  IC50: 1 ± 0.1 µg/mL
  IC80: 26.4 ± 0.8 µg/mL
[9]
  MIC: 875 ± 256 µg/mL
[10]
  MIC: 512 µg/mL
[11]
  MIC: > 512 µg/mL
[12]
  MIC: > 512 µg/mL
[13]
  MIC: > 512 µg/mL
[14]
  MIC: > 512 µg/mL
[15]
  MIC: 128 µg/mL
[16]
  MIC: > 512 µg/mL
[17]
  MIC: 277 ± 400 µg/mL
[18]
  MIC: 64 µg/mL
[19]
  IC50: 19.4 ± 2.9 µg/mL
  IC80: 78.9 ± 0.3 µg/mL
[20]
  MIC: > 512 µg/mL
[21]
  MIC: 512 µg/mL
[22]
  MIC: ≥ 32 µg/mL
[23]
  MIC: > 512 µg/mL
[24]
  MIC: > 512 µg/mL
[25]
  MIC: 32 µg/mL
[26]
  MIC: 64 µg/mL
[27]
  MIC: 64 µg/mL
[28]
  MIC: 256 µg/mL

## O=S(=O)(O)c1cc(I)c(O)c2ncccc12 [FRN, 7-iodo-8-hydroxyquinoline-5-sulfonic acid]
[1]
  MIC: 512 µg/mL (≈ 1460 µM)
[2]
  MIC: > 512 µg/mL
[3]
  IC50: 70.8 ± 16 µg/mL (≈ 202 µM)
  IC80: 145 ± 4.8 µg/mL (≈ 412 µM)
[4]
  MIC: 512 µg/mL (≈ 1460 µM)
[5]
  MIC: 256 µg/mL (≈ 729 µM)
[6]
  IC50: 86.3 ± 12 µg/mL (≈ 246 µM)
  IC80: 149 ± 6 µg/mL (≈ 425 µM)
[7]
  MIC: 512 µg/mL (≈ 1460 µM)
[8]
  IC50: 22.6 ± 3.3 µg/mL (≈ 64.4 µM)
  IC80: 46 ± 2.2 µg/mL (≈ 131 µM)
[9]
  MIC: 715 ± 388 µg/mL (≈ 2040 µM)
[10]
  MIC: > 512 µg/mL
[11]
  MIC: > 512 µg/mL
[12]; Clostridium difficile, […], read-out: MIC
  MIC: 64 µg/mL (≈ 182 µM)
[13]
  MIC: > 512 µg/mL
[14]
  MIC: > 512 µg/mL
[15]
  MIC: 256 µg/mL (≈ 729 µM)
[16]
  MIC: 128 µg/mL (≈ 365 µM)
[17]
  MIC: 384 ± 148 µg/mL (≈ 1090 µM)
[18]
  MIC: 512 µg/mL (≈ 1460 µM)
[19]
  IC50: 55.2 ± 4.8 µg/mL (≈ 157 µM)
  IC80: 140 ± 26 µg/mL (≈ 398 µM)
[20]
  MIC: > 512 µg/mL
[21]
  MIC: 256 µg/mL (≈ 729 µM)
[22]
  MIC: ≥ 64 µg/mL
[23]
  MIC: > 512 µg/mL
[24]
  MIC: 512 µg/mL (≈ 1460 µM)
[25]
  MIC: 512 µg/mL (≈ 1460 µM)
[26]
  MIC: 512 µg/mL (≈ 1460 µM)
[27]
  MIC: 256 µg/mL (≈ 729 µM)
[28]
  MIC: 64 µg/mL (≈ 182 µM)
